Legend:
[1] = system: HCC1937 BRCA1 mutant and HCC1937-BR (BRCA1 corrected) breast cancer cell-lines; settings: HCC1937 BRCA1 mutant cell-line relative to the BRCA1 corrected cell-line (HCC1937-BR); constant exposure, 12-14 days
Method: The HCC1937 parental, HCC1937-EV and HCC1937-BR cell-lines were kindly donated by Professor Paul Harkin from Queen's University College Belfast (QUB). The cell-lines were routinely maintained in RPMI-1640 medium supplemented with 50 U penicillin/ml, 50 μg streptomycin/ml, 2 mM glutamine, 1 mM Sodium Pyruvate and 20% (v/v) fetal bovine serum (FBS). The HCC1937-EV and HCC937-BR cell-lines also required 0.2 ml/mg geneticin. Cell-lines were cultured at 37° C. with a humidified atmosphere of 5% CO2.
Twenty-four hours following seeding the cells were exposed to medium containing increasing doses of drug. Cell medium was replenished every 4-5 days. After 12-14 days the cells were fixed in methanol, stained with crystal violet and counted. The percentage survival of control for a given dose was calculated as the plating efficiencies for that dose divided by the plating efficiencies of vehicle-treated cells. Survival curves and half maximal inhibitory concentration (IC50) values were calculated using GraphPad Prism.

[2] = system: HCC1937 BRCA1 mutant and HCC1937-BR (BRCA1 corrected) breast cancer cell-lines; assay: Cell viability assay (CellTitre-Glo), determination of cisplatin sensitivity; format: cell-based; settings: HCC1937 BRCA1 mutant cell-line relative to the BRCA1 corrected cell-line (HCC1937-BR); 96 hours exposure
Method: For measurement of sensitivity to cisplatin, exponentially growing cells were seeded into 96-well plates. […] Cells were incubated in the presence of drug for 96 hours following which time the viability of the cells was assessed using the Promega CellTitre-Glo luminescent cell viability assay. The sensitivity of the cells was calculated as the percentage of vehicle (DMSO) control.

Row | Structure (SMILES) | sensitivity to PARP-1 inhibitor (clonogenic survival) [1] | sensitivity to cisplatin (cell viability) [2]
1 | O=C(c1cc(Cc2n[nH]c(=O)c3ccccc23)ccc1F)N1CCCNCC1 [KU0058948] | more sensitive | 
2 | N.N.[Cl][Pt][Cl] [cisplatin] |  | more sensitive
